{"source": "patent US6350731B1", "about": "“Platelet-derived growth factor analogues” (Trigen Limited, priority 1993, dated 2002)", "key": {"PDGF receptor": {"test_system": "PDGF receptor", "conditions": "cited from earlier work"}, "Swiss 3T3.A31": {"test_system": "Swiss 3T3.A31", "experiment": "[3H]-thymidine uptake assay on fibroblast cells in culture", "type": "cell-based, murine", "conditions": "for stimulatory (mitogenic) effect, thymidine uptake: FIG. 1", "experimental": "2) Effect of PDGF Peptides on Fibroblast Cells in Culture The stimulatory or inhibitory effect of the peptides on the murine fibroblast cell line Swiss 3T3.A31 were investigated using the [^3H]-thymidine uptake assay as described by Raines & Ross. The peptides were tested for their ability to stimulate thymidine uptake in the cells in culture."}, "[1]": {"test_system": "human smooth muscle cells", "experiment": "125I-PDGF-BB binding inhibition assay, human smooth muscle cells (peptides)", "conditions": "FIG. 2B", "experimental": "(§1) 3) Effect of PDGF Peptides on ^125I-PDGF-BB Binding to 3T3 Cells and Human Smooth Muscle Cells p PDGF-BB binding inhibition assay was performed as described by Engstrom et al. A murine fibroblast cell line 3T3.A31 and human aortic smooth muscle cells were used."}, "PDGF": {"molecular_target": "T1, PDGF (Homo sapiens, UniProt P01127)", "T1 construct": "both chains undergo proteolytic cleavage at the N-termini during maturation; The B chain is also processed at the C-terminal end", "T1 sequence (P01127 82-190 limits assumed)": "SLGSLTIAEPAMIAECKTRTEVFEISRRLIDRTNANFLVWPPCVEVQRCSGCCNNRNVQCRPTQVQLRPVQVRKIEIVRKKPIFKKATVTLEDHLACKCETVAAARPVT", "experiment": "Western blot vs native PDGF", "type": "binding", "conditions": "polyclonal antisera", "experimental": "(§2) Rabbits and mice were immunised with the peptides either in the free form mixed with Freund's adjuvant or conjugated to a carrier protein (Thyroglobulin or keyhole haemocyanin). Antisera were tested for antibody production to the peptides and PDGF using ELISA, dot blot assays and SDS-PAGE followed by Western blotting."}, "[2]": {"test_system": "smooth muscle cells of injured arteries", "conditions": "administration of PDGF, rat, reference [19]; cited from earlier work"}, "large bed sores": {"test_system": "large bed sores", "conditions": "locally applied, reference [31]; cited from earlier work"}, "PDGF β-receptors": {"molecular_target": "PDGF β-receptors (Homo sapiens, UniProt P09619)", "sequence (P09619 33-1106)": "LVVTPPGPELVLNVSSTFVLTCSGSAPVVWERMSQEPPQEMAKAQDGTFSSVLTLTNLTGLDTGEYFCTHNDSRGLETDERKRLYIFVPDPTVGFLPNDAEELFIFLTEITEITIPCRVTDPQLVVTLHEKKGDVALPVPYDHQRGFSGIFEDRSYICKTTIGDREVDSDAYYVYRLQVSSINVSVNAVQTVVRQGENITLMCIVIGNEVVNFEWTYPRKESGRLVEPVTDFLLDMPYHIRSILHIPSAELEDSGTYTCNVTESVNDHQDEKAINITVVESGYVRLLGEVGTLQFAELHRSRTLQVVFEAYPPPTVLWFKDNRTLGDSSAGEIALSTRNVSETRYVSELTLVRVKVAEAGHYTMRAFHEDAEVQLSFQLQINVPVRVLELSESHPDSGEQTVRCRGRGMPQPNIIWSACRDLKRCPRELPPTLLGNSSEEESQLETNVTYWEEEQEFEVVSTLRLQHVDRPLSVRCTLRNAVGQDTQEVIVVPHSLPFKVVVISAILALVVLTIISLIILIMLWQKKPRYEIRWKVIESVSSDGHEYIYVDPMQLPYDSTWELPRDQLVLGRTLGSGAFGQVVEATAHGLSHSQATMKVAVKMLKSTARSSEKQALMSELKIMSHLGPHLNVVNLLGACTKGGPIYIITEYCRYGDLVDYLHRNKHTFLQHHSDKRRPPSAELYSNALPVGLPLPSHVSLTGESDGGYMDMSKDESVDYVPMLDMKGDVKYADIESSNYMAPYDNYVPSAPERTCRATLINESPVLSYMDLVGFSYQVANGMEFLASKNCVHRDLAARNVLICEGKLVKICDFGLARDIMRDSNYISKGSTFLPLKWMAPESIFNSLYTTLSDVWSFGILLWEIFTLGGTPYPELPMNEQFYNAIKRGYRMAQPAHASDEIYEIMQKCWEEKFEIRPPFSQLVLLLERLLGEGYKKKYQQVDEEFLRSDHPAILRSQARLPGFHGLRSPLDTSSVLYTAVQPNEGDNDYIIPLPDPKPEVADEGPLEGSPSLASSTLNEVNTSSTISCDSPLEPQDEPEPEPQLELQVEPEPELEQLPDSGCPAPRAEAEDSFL", "conditions": "reference [6]; cited from earlier work"}, "3T3 cells": {"test_system": "3T3 cells", "experiment": "125I-PDGF-BB binding inhibition assay, 3T3 cells", "set-up": "species or system murine", "conditions": "at the concentrations tested, FIG. 2A", "experimental": "as §1"}, "[3]": {"test_system": "corresponding immunising peptide", "experiment": "ELISA titre of polyclonal antisera", "type": "binding", "conditions": "rabbits immunised with peptide linked to thyroglobulin, FIGS. 3A, 3B", "experimental": "as §2"}}, "note": "Where no end group is shown, it is not given here. SMCC = N-(4-carboxy-cyclohexyl-methyl)-maleimide cross-linker", "data": [{"substance": "protamine sulphate", "values": [{"measurement": "inhibition of PDGF binding to its receptor", "setting": "PDGF receptor", "value": "inhibit PDGF binding to its receptor"}]}, {"substance": "Ac-^25I-S-R-R-L-I-D-R-T-N-A-N-F-L^38 (Ac-ISRRLIDRTNANFL) [GP2]", "values": [{"measurement": "stimulatory (mitogenic) effect, thymidine uptake", "setting": "Swiss 3T3.A31", "value": "low stimulatory effect"}]}, {"substance": "Ac-^25I-S-R-R-L-I-D-R-T-N-A-N-F-L-V-W-P-P-C^43-(SMCC)-^73R-K-I-E-I-V-R-K-K^81-C (Ac-ISRRLIDRTNANFLVWPPC(SMCC)RKIEIVRKKC; also: SMCC joins Cys43 (pos 19) to Arg73 (pos 20) in place of a peptide bond) [GP20]", "values": [{"measurement": "inhibition of labelled PDGF binding to human smooth muscle cells", "setting": "[1]", "value": "potent inhibitors"}]}, {"substance": "Ac-^25I-S-R-R-L-I-D-R-T-N-A-N-F-L^38-(G-G-G-G-G-G)-^73R-K-I-E-I-V-R-K-K^81-C [GP14]", "values": [{"measurement": "inhibition of labelled PDGF binding to human smooth muscle cells", "setting": "[1]", "value": "potent inhibitors"}]}, {"substance": "^73R-K-I-E-I-V-R-K-K-P-I-F-K-K-A-T-V^89 (RKIEIVRKKPIFKKATV) [GP21a]", "values": [{"measurement": "antibodies produced by the peptide reacted with native PDGF (Western immunoblot)", "setting": "PDGF", "value": "reacted with the native PDGF"}]}, {"substance": "polylysin", "values": [{"measurement": "inhibition of PDGF binding to its receptor", "setting": "PDGF receptor", "value": "inhibit PDGF binding to its receptor"}]}, {"substance": "PDGF: 28-31 KD dimeric, highly basic glycoprotein, mitogen for connective tissue cells", "values": [{"measurement": "SMC migration from the media to the intima", "setting": "[2]", "value": 20, "unit": "fold"}, {"measurement": "SMC proliferation in the media", "setting": "[2]", "value": "2-3 fold"}, {"measurement": "healing of large bed sores", "setting": "large bed sores", "value": "stimulates the healing of large bed sores"}]}, {"substance": "ANFLVW—EIVRKKP [literature peptide corresponding to PDGF-B chain residues 35-40 and 78-83]", "values": [{"measurement": "antagonist for PDGF", "setting": "PDGF β-receptors", "value": "effective as an antagonist for PDGF"}]}, {"substance": "Ac-^25I-S-R-R-L-I-D-R-T-N-A-N-F-L^38-C (Ac-ISRRLIDRTNANFLC) [GP4]", "values": [{"measurement": "stimulatory (mitogenic) effect, thymidine uptake", "setting": "Swiss 3T3.A31", "value": "highest stimulatory effect"}, {"measurement": "mitogenic effect upon reduction and alkylation of the C-terminal end cysteine residue", "setting": "Swiss 3T3.A31; reduced and alkylated peptide", "value": "almost completely abolished"}, {"measurement": "inhibition of binding of radiolabelled PDGF-BB to 3T3 cells", "setting": "3T3 cells", "value": "modest inhibition"}, {"measurement": "antibodies to the corresponding immunising peptide by ELISA", "setting": "[3]", "value": "high titre antibodies"}, {"measurement": "antibodies produced by the peptide reacted with native PDGF (Western immunoblot)", "setting": "PDGF", "value": "reacted with the native PDGF"}]}, {"substance": "AC-^73R-K-I-E-I-V-R-K-K^81-C (Ac-RKIEIVRKKC) [GP8]", "values": [{"measurement": "stimulatory (mitogenic) effect, thymidine uptake", "setting": "Swiss 3T3.A31", "value": "not as stimulatory as GP4"}, {"measurement": "inhibition of binding of radiolabelled PDGF-BB to 3T3 cells", "setting": "3T3 cells", "value": "modest inhibition"}, {"measurement": "antibodies to the corresponding immunising peptide by ELISA", "setting": "[3]", "value": "high titre antibodies"}]}]}
